The values below come from publication PMC12040169 (PLOS Biology, 2025).

The data set in a line: in vitro. The note with it: human, hela cells, % viability.
With `CCN(Cc1ccccc1)C(=O)Nc1ccc2[nH]ccc2c1` [CBK155229], the viability at 28.5 h, 10 µM stood at 95.2%. For `CCN(Cc1ccccc1)C(=O)Nc1ccc2c(c1)OCCO2` [CBK155231] the value was 100%; for `CCN(Cc1ccccc1)C(=O)Nc1ccc(C)cc1` [CBK155248], 99.1%. For `CCOC(=O)CCCNC(=O)N(CC)Cc1ccccc1` [CBK155252] the value was 106%.

For the compound `COc1ccc(C(=O)N(C)C2CCN(C)C2)cc1Nc1cncc(-c2cc3ccccc3[nH]2)n1` (stereo not drawn) [CBK155260T], the viability at 28.5 h, 10 µM stood at 108%. For `CSc1nnc(N(C)S(=O)(=O)c2ccc(C)cc2)s1` [CBK155272] the value was 87.2%; for `N#Cc1ccc(CNC(=O)N2CCc3ccccc3C2)cc1` [CBK155287], 107%; for `NC(=O)CCNC(=O)N1CCc2ccccc2C1` [CBK155288], 104%.

Consider `Cc1ccc(NC(=O)N2CCc3ccccc3C2)cc1` [CBK155309], for which the viability at 28.5 h, 10 µM came out at 93.6%. For the compound `CSCCCNC(=O)N(CCc1ccccc1)Cc1ccccc1` [CBK155317], the viability at 28.5 h, 10 µM was 87.2%.

Turning to `N#Cc1cccc(S(=O)(=O)Nc2ccc(-c3nnn[nH]3)cc2)c1` [CBK155427], the viability at 28.5 h, 10 µM was found to be 95.5%.

`O=C(N1CCc2ccc(S(=O)(=O)Nc3ccc(-c4nnn[nH]4)cc3)cc2C1)C(F)(F)F` [CBK155437]: the viability at 28.5 h, 10 µM came to 99.9%. Consider `CCc1c(C)nc2ccccc2c1SCCOC(=O)Nc1ccccc1` [CBK155466T], for which the viability at 28.5 h, 10 µM was 85.6%.

Take `CCc1c(S(=O)(=O)CCC(=O)OC)c2ccccc2[n+]([O-])c1C` [CBK155469T]: the viability at 28.5 h, 10 µM was 91.4%. Next, `CN(C)CC(=O)N1Cc2cccc3c2c(cn3S(=O)(=O)c2ccccc2)C1` [CBK155548T]: 94.5%; `CCc1c(C)nc2ccccc2c1SCCOC(=O)Nc1ccc(OC)cc1` [CBK155554T]: 92.5%. On to `COc1ccc(CNC(=O)N2CCN(c3ccccc3OC)CC2)cc1OC` [CBK155609], for which the viability at 28.5 h, 10 µM turned out to be 89.2%. For `COc1ccccc1N1CCN(C(=O)NCCCN2CCCC2=O)CC1` [CBK155612] the value was 99.5%; for `COc1ccccc1N1CCN(C(=O)Nc2cccnc2)CC1` [CBK155617], 98.7%; for `CCOC(=O)CCCNC(=O)N1CCN(c2ccccc2OC)CC1` [CBK155618], 95.9%.

Regarding `CN1CCN(CCCNC(=O)N2CCN(Cc3ccccc3)CC2)CC1` [CBK155621], the viability at 28.5 h, 10 µM is 91.3%. Next, `O=C(NCCc1c[nH]c2ccccc12)N1CCN(Cc2ccccc2)CC1` [CBK155646]: 78.9%. Next, `O=C(NCC(c1ccccc1)c1ccccc1)N1CCN(Cc2ccccc2)CC1` [CBK155651]: 83.9%; `O=C(NCCOc1ccccc1)N1CCN(Cc2ccccc2)CC1` [CBK155652]: 93.3%. For `CC(C)CCNC(=O)N1CCN(Cc2ccccc2)CC1` [CBK155657], the viability at 28.5 h, 10 µM was 87.2%. Next, `O=C(NC1CCc2ccccc21)N1CCN(Cc2ccccc2)CC1` (stereo not drawn) [CBK155662]: 97%.

With `O=C(Nc1cccnc1)N1CCN(Cc2ccccc2)CC1` [CBK155663], the viability at 28.5 h, 10 µM was 87.7%.

In the case of `CCOC(=O)CCCNC(=O)N1CCN(Cc2ccccc2)CC1` [CBK155664], the viability at 28.5 h, 10 µM came out at 89.2%. With `CSCCCNC(=O)N1CCN(CCN2CCOCC2)CC1` [CBK155669], the viability at 28.5 h, 10 µM amounted to 90.9%. For `O=C(NCc1cccc(C(F)(F)F)c1)N1CCN(CCN2CCOCC2)CC1` [CBK155671] the value was 98.9%. Consider `Cc1cnc(CNC(=O)N2CCN(CCN3CCOCC3)CC2)cn1` [CBK155673], for which the viability at 28.5 h, 10 µM was 95.2%. Next, `O=C(O)c1cccc(NS(=O)(=O)c2ccc(Br)cc2F)c1` [CBK155691]: 95.6%; `N#Cc1cccc(S(=O)(=O)Nc2cccc(C(=O)O)c2)c1` [CBK155699]: 95.7%. With `O=C(O)c1cccc(NS(=O)(=O)c2ccc3c(c2)CN(C(=O)C(F)(F)F)CC3)c1` [CBK155709], the viability at 28.5 h, 10 µM came to 92.2%. Next, `O=C(O)c1cccc(NS(=O)(=O)c2cccc([N+](=O)[O-])c2)c1` [CBK155711]: 99.2%; `O=C(O)c1cccc(NS(=O)(=O)CC(F)(F)F)c1` [CBK155712]: 94.3%; `Cc1cc(S(=O)(=O)Nc2ccc3[nH]ccc3c2)c(C)o1` [CBK155743]: 71.4%.

Turning to `O=S(=O)(/C=C/c1ccccc1)Nc1cccc2[nH]ccc12` [CBK155772], the viability at 28.5 h, 10 µM came out at 103%. Turning to `COc1ccc2[nH]cc(CCNC(=O)N3CCN(CCN4CCOCC4)CC3)c2c1` [CBK155818], the viability at 28.5 h, 10 µM stood at 101%. For `O=C(Nc1ccccc1Cl)N1CCN(CCN2CCOCC2)CC1` [CBK155824] the value was 89.4%; for `CC(C)CNC(=O)N1CCN(CCN2CCOCC2)CC1` [CBK155826], 88.1%.

In the case of `NC(=O)c1ccc(NC(=O)N2CCN(CCN3CCOCC3)CC2)cc1` [CBK155831], the viability at 28.5 h, 10 µM came to 81.6%. For `CCN(CC)CCCNC(=O)N1CCN(CCN2CCOCC2)CC1` [CBK155837] the value was 90.9%; for `CSCCCNC(=O)N1CCNC(=O)C1` [CBK155848], 98.3%. Next, `O=C1CN(C(=O)NCc2cccc(C(F)(F)F)c2)CCN1` [CBK155850]: 105%; `O=C1CN(C(=O)NCc2cccc3ccccc23)CCN1` [CBK155852]: 102%.

Consider `O=C1CN(C(=O)Nc2ccc3c(c2)OCCO3)CCN1` [CBK155860], for which the viability at 28.5 h, 10 µM amounted to 92.9%.

Turning to `O=C1CN(C(=O)Nc2ccc(Cl)cc2)CCN1` [CBK155861], the viability at 28.5 h, 10 µM was determined as 81.3%. For `O=C1CN(C(=O)Nc2ccccc2Cl)CCN1` [CBK155862] the value was 96.7%; for `O=C1CN(C(=O)NCc2ccc(F)cc2)CCN1` [CBK155869], 88.2%. Turning to `O=C1CN(C(=O)NCCOc2ccccc2)CCN1` [CBK155871], the viability at 28.5 h, 10 µM was found to be 120%.

Take `CN1CCC(N2CCN(C(=O)NCc3ccc(Cl)c(Cl)c3)CC2)CC1` [CBK155883]: the viability at 28.5 h, 10 µM is 92.5%. For `Cc1cnc(CNC(=O)N2CCN(C3CCN(C)CC3)CC2)cn1` [CBK155886] the value was 91.3%; for `CN1CCC(N2CCN(C(=O)NCCN3CCOCC3)CC2)CC1` [CBK155891], 93.8%. On to `COc1ccc(CCNC(=O)N2CCN(C3CCN(C)CC3)CC2)cc1OC` [CBK155897], for which the viability at 28.5 h, 10 µM was 94.3%. Next, `CN1CCC(N2CCN(C(=O)Nc3ccc(Cl)cc3)CC2)CC1` [CBK155899]: 109%; `CC(=O)Nc1cccc(NC(=O)N2CCN(C3CCN(C)CC3)CC2)c1` [CBK155901]: 85.1%; `CC(C)COC(=O)N1CCC2(CC1)CC(=O)N(Cc1ccc(S(C)(=O)=O)cc1)C2=O` [CBK155948]: 103%. For the compound `CN(C)C(=O)c1ccc(-c2ccc(COC3CCN(C(=O)Cc4ccc(F)cc4)CC3)c(S(C)(=O)=O)c2)cc1` [CBK155963], the viability at 28.5 h, 10 µM came out at 96.1%. Next, `CN(C)C(=O)c1ccc(-c2ccc(COC3CCN(C(=O)c4cc5ccccc5o4)CC3)c(S(C)(=O)=O)c2)cc1` [CBK155965]: 94.6%; `CCN(CC)CCCNC(=O)N1CCCCC1CO` (stereo not drawn) [CBK155982]: 97.9%. `O=C1CCCN1CCCNC(=O)N1CCCCC1CO` (stereo not drawn) [CBK155985]: the viability at 28.5 h, 10 µM stood at 91.8%. For `CCOC(=O)N1CCC(NC(=O)N2CCCCC2CO)CC1` (stereo not drawn) [CBK155991] the value was 106%; for `Cc1cc(CNC(=O)N(C)C2CCN(C)C2)no1` (stereo not drawn) [CBK155992], 103%; for `CN1CCN(CCCNC(=O)N(C)C2CCN(C)C2)CC1` (stereo not drawn) [CBK155993], 96.4%. Next, `CN1CCC(N(C)C(=O)NCC2COc3ccccc3O2)C1` (stereo not drawn) [CBK155994]: 100%; `CN1CCC(N(C)C(=O)NCc2ccc(Cl)c(Cl)c2)C1` (stereo not drawn) [CBK155996]: 92.4%.

Regarding `CN1CCC(N(C)C(=O)NCc2cccc3ccccc23)C1` (stereo not drawn) [CBK155999], the viability at 28.5 h, 10 µM worked out at 89.2%. Next, `CN1CCC(N(C)C(=O)NC(c2ccccc2)c2ccccc2)C1` (stereo not drawn) [CBK156000]: 96.4%; `CN1CCC(N(C)C(=O)NCc2cccnc2)C1` (stereo not drawn) [CBK156001]: 93.5%; `CN1CCC(N(C)C(=O)Nc2ccc3[nH]ccc3c2)C1` (stereo not drawn) [CBK156006]: 92.2%. Next, `CN1CCC(N(C)C(=O)Nc2ccc3c(c2)OCCO3)C1` (stereo not drawn) [CBK156008]: 116%; `CN1CCC(N(C)C(=O)NCc2c(Cl)cccc2Cl)C1` (stereo not drawn) [CBK156014]: 99%; `CN1CCC(N(C)C(=O)Nc2ccc(C(N)=O)cc2)C1` (stereo not drawn) [CBK156015]: 93.8%. Next, `COc1ccc(CCNC(=O)N(C)C2CCN(C)C2)cc1` (stereo not drawn) [CBK156019]: 100%; `COc1cc(NC(=O)N(C)C2CCN(C)C2)cc(OC)c1OC` (stereo not drawn) [CBK156022]: 101%. Turning to `Cc1ccc(NC(=O)N(C)C2CCN(C)C2)cc1` (stereo not drawn) [CBK156023], the viability at 28.5 h, 10 µM was determined as 103%. For `CN1CCC(N(C)C(=O)Nc2cccnc2)C1` (stereo not drawn) [CBK156026] the value was 93.8%. Next, `CCOC(=O)N1CCC(NC(=O)N(C)C2CCN(C)C2)CC1` (stereo not drawn) [CBK156027]: 102%; `CN1CCN(CCCNC(=O)N2CCCC(CO)C2)CC1` (stereo not drawn) [CBK156029]: 99.7%; `O=C(NCC1COc2ccccc2O1)N1CCCC(CO)C1` (stereo not drawn) [CBK156030]: 91.3%. For `CSCCCNC(=O)N1CCCC(CO)C1` (stereo not drawn) [CBK156031] the value was 106%; for `O=C(NCc1cccnc1)N1CCCC(CO)C1` (stereo not drawn) [CBK156037], 90.5%. Consider `COCCNC(=O)N1CCCC(CO)C1` (stereo not drawn) [CBK156040], for which the viability at 28.5 h, 10 µM was 88.3%.

Usually viability stands for a read-out of living cells in per cent, often relative to untreated cells.
